In assay [1] the test system is Colletotrichum lagenarium. The assay is described as follows: Mycelial growth inhibition, poison agar assay. The class given is cell-based.
The test system of assay [2] is Botrytis cinerea spores. The assay is described as follows: Spore adhesion to Plexiglas chamber slides. The class given is cell-based. The method, then: Assays were conducted in custom-made chamber slides made of Plexiglas®. Chamber slide wells received 5 µl of DMSO (controls) or kresoxim-methyl dissolved in DMSO, followed by 500 µl of SDB. Aqueous spore suspension (500 µl) at 200,000 spores/ml was added, mixed gently and the vials or slides incubated at 25°C for the desired period. The number of nonadhered spores was determined by transferring the fluid to a counting vial, washing the chamber slide well once by adding 1 ml of counting fluid to the well, shaking gently, and then adding the wash to the counting vial. Counting fluid (14 ml) was added to the vial, and the spores counted using a Coulter Counter®. The number of adhered spores was determined by subtracting the number of nonadhered spores from the total number of spores and was expressed as a percentage (% Adhesion).

Assay [3] concerns Colletotrichum lagenarium spores. Briefly: Spore adhesion assay in 96-well polystyrene microtiter plates. It is filed as cell-based. The following applies: SDB with Tween 20 (40 ppm), 8 h. The method, then: (§1) For adhesion assays in microtiter plates, stock solutions of test compounds were prepared in DMSO then diluted in SDB such that the DMSO concentration after dilution was ≤2%. Two-fold serial dilutions of these test compound solutions were made in SDB (100 µl) in 96-well flat-bottomed microtiter plates. Spore suspension (100 µl at 2X10^5 spores/ml) was added to the wells, and the plates were incubated at 25°C for 5.5 hours. The medium containing unbound spores was removed by inverting and flicking the microtiter plate to remove as much liquid as possible.
Colletotrichum lagenarium was grown at 25°C in the dark on potato dextrose agar and subcultured every 7-14 days. To prepare spore suspensions, 15 ml sterile water was added to plates (7-10 days old) and the plates agitated gently on a gyrotary shaker for 10 min to release spores. The resulting spore suspension was filtered through glass wool and adjusted to the desired concentration. Spore adhesion assays and germination assays were conducted as outlined in Example 1 for Botrytis except that the SDB medium contained Tween™ 20 (40 ppm), and the spore inoculum was prepared at 5X10^5 spores/ml. Data in the table below show a time-dependent adhesion of spores to the slide which closely parallels the time-course for spore germination.
Various fungicides were evaluated for their abilities to inhibit spore adhesion in 96-well flat-bottomed polystyrene microtiter plates and Permanox® chamber slides, and for their effects on spore germination and mycelial growth. Assays were conducted as outlined in Example 2 for Botrytis except that the SDB medium contained Tween™ 20 (40 ppm), the spore inoculum was prepared at 5X10^5 spores/ml, and 8 h incubation was used for the adhesion and germination assays. For each compound tested, EC50 values for inhibition of adhesion to microtiter plates and chamber slides were similar. Spore adhesion was sensitive to all compounds which inhibited germination at low concentrations (<0.2 ppm).

For a further assay, the system named is Botrytis. The assay is described as follows: Mycelial growth inhibition, poison agar assay. The following applies: Botrytis, 72 h, read-out: Mycelial Growth Inhn. EC50 (ppm).
Assay [4] has as its system Botrytis cinerea spores. Briefly: Spore adhesion assay in polystyrene counting vials (Coulter Counter). It is filed as cell-based. The conditions noted are these: Botrytis cinerea, 25°C, 5.5 h, read-out: Inhn. of Spore Adhesion (EC50, ppm) Counting vials. The method, then:
(§2) Botrytis cinerea was grown at room temperature under fluorescent lights on potato dextrose agar (PDA), and subcultured every 14 days. To prepare spore suspensions, 20 ml sterile milliQ™ water was added to plates (10-14 days old) and the surface scraped gently with a sterile loop. The fluid was filtered through glass wool to remove mycelial fragments, then the spore density was adjusted to the desired concentration.
Various fungicides were evaluated for their abilities to inhibit germination-associated spore adhesion to polystyrene counting vials, polymethylpentene (Permanox®) chamber slides and 96-well flat-bottomed polystyrene microtiter plates, and for their effects on spore germination and mycelial growth (table below). Adhesion assays in chamber slides and germination assays were performed as in Example 1 with incubation at 25°C for 5.5 h. Adhesion assays in counting vials were conducted in 20 ml capacity polystyrene counting vials (VWR cat. no. 14310-640). Counting vials received 5 µl of DMSO (controls) or test compound dissolved in DMSO, followed by 500 µl of SDB. Aqueous spore suspension (500 µl) at 200,000 spores/ml was added, mixed gently and the vials or slides incubated at 25°C for 5.5 h. To determine the numbers of unbound spores 15 ml of counting fluid was added, vials were capped and inverted gently 5 times, then counted using a Coulter Counter®.

For assay [5], the system named is Botrytis cinerea spores. Briefly: Spore adhesion assay in 96-well polystyrene microtiter plates (sulforhodamine B). It is filed as cell-based. The following applies: Botrytis cinerea, 25°C, 5.5 hours, read-out: Inhn. of Spore Adhesion (EC50, ppm) Microtiter plates. The method, then: as §2, §1
Assay [6] has as its system Botrytis cinerea spores. Briefly: Spore germination assay (microscopic examination). The class given is cell-based. The following applies: Botrytis cinerea; 25°C, 5.5 h; read-out: Inhn. of Germination EC50 (ppm).
Assay [7] has as its system Botrytis cinerea spores. The assay is described as follows: Spore adhesion to borosilicate glass vials. It is filed as cell-based.
For the next assay, the system named is Puccinia recondita. Briefly: Germination-associated spore adhesion assay in microtiter plates (sulforhodamine B). The class given is cell-based.
The subject of assay [8] is Botrytis cinerea spores. Briefly: microbe, parasite or virus in culture. The class given is cell-based. The following applies: Botrytis cinerea, 5.5 h, read-out: Inhn. of Spore Adhesion (EC50, ppm) Chamber Slides.
Assay [9] relates to Colletotrichum lagenarium spores. The assay is described as follows: Spore germination assay. It is filed as cell-based. The conditions noted are these: SDB with Tween 20 (40 ppm), 8 h.
Assay [10] deals with Botrytis cinerea spores. The assay is described as follows: Spore adhesion to polypropylene vials. It is filed as cell-based. The following applies: 7 hours.
Assay [11] deals with Colletotrichum lagenarium spores. The class given is cell-based. The conditions noted are these: SDB with Tween 20 (40 ppm), 8 h.
Another assay has as its system Magnaporthe grisea. The class given is cell-based.
The test system of assay [12] is Botrytis cinerea spores. Briefly: Spore adhesion to polyethylene vials. It is filed as cell-based.
The test system of assay [13] is Aspergillus nidulans spores. Briefly: Spore adhesion assay in 96-well polystyrene microtiter plates. It is filed as cell-based. The conditions noted are these: statement in words. As for the experimental part: as §1
Various fungicides were evaluated for their abilities to inhibit spore adhesion in 96-well flat-bottomed polystyrene microtiter plates. Adhesion assays were conducted as outlined in Example 2 for Botrytis except that the spore inoculum was prepared at 2X10^6 spores/ml, and plates were incubated at 37°C for 8 h.

Each structure is given as a SMILES string. In brackets after ≈: the same amount, converted by molar mass. Some results are limits rather than exact numbers.

A word on the EC50: it is the concentration at which the effect is half-maximal.

Turning to `CO/N=C(/C(=O)OC)c1ccccc1COc1ccccc1C` [Kresoxim-methyl], the “Mycelial Growth Inhn. EC50 (ppm)” value in assay [1] was >10 ppm. For the same compound, the “%Adhesion with kresoxim-methyl, 10 ppm” value with Botrytis cinerea spores [2] (7 hours) stood at 17.4%; with Botrytis cinerea spores [2] (8 hours), 26.2%; in the assay with Botrytis cinerea spores [7] (6 hours), 23.4%; in the assay on Botrytis cinerea spores [7] (7 hours) it was 29.6%; in the assay with Botrytis cinerea spores [10] it was 18.9%; in the assay with Botrytis cinerea spores [12] (6 hours) it was 12.7%. The “%Adhesion with kresoxim-methyl, 10 ppm” value in the assay with Botrytis cinerea spores [12] (7 hours) worked out at 15.1%. Besides, in assay [3], the “Inhn. of Adhesion (EC50, ppm) Microtiter plates” value is 0.026 ppm. In addition, the EC50 with Botrytis came out at 0.28 µg/mL (≈ 0.894 µM); in the assay on Botrytis cinerea spores [4], 0.014 µg/mL (≈ 0.0447 µM); in the assay on Botrytis cinerea spores [5], 0.011 µg/mL (≈ 0.0351 µM); in the assay with Botrytis cinerea spores [6], 0.02 µg/mL (≈ 0.0638 µM); in the assay with Botrytis cinerea spores [8], 0.035 µg/mL (≈ 0.112 µM). Also, the “EC50 (ppm)” value with Puccinia recondita (inhibition of adhesion, 0.05% Tween 20, 19°C, 4 hours) turned out to be 0.016 ppm; with Magnaporthe grisea (inhibition of adhesion, YEG, 25°C, 6 hours), 0.067 ppm. In addition, the “inhibition of germination-associated adhesion” value in the assay on Puccinia recondita (statement in words) was “inhibited germination-associated adhesion”; in the assay on Magnaporthe grisea (statement in words), “potent inhibitors of germination-associated adhesion”. Besides, in [9], the “Germination EC50 (ppm)” value turned out to be 0.015 ppm. The “Inhn. of Adhesion (EC50, ppm) Chamber slides” value in [11] is recorded as 0.054 ppm. For the same compound, the “inhibition of spore adhesion” value in [13] is “highly potent inhibitors of spore adhesion”.
